One block for each compound: values may come before it.
Key:
QR2 = molecular target: T1, QR2 (Homo sapiens, UniProt P16083); experiment: Inhibition of QR2 (IC50, Table 1); type: biochemical; settings: for LiPE (pIC50-clogP): lipophilic efficiency, QR2 pIC50 minus clog P; for IC50: inhibitors of QR2, mean +/− SD
T1 sequence (P16083 1-231): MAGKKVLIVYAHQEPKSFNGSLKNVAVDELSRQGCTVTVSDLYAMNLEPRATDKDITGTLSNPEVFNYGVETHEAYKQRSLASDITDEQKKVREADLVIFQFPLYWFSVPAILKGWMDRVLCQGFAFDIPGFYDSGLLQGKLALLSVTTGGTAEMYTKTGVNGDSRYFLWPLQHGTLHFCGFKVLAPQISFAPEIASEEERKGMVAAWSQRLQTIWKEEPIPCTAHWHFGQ

[1] = system: transient middle cerebral artery (MCA) occlusion; experiment: Mouse model of transient middle cerebral artery (MCA) occlusion; type: in vivo
[2] = in vivo
[3] = system: TBI model of diffuse closed head injury; experiment: Murine TBI model of diffuse closed head injury; type: in vivo; settings: single 25 mg/kg administration, n=12/gp
Source text: The neuroprotective potential of QR2 inhibition was investigated in a murine TBI model of diffuse closed head injury (Laskowitz et al., “Neuroprotective pentapeptide CN-105 is associated with reduced sterile inflammation and improved functional outcomes in a traumatic brain injury murine model.” Sci. Rep. 2017 Apr. 21; 7:46461).

[4] = system: intracranial hemorrhagic injury; experiment: Mouse model of intracranial hemorrhagic injury; type: in vivo; settings: single 25 mg/kg i.p. dose
[5] = system: CPB/DHCA perioperative cerebral injury; experiment: Rat model of cardiopulmonary bypass (CPB)/deep hypothermic circulatory arrest (DHCA); type: in vivo, Sprague-Dawley rats; settings: for apoptotic and necrotic neurons in cortex and hippocampus: 25 mg/kg, 48 hours after DHCA, FIG. 6, FIG. 7; for decrease in post-operative blood brain barrier permeability (gadolinium chelate, MRI): compared to respective control groups, p<0.05, preliminary results
Experimental: Perioperative cerebral injury (PCI) following major cardiovascular surgery using cardiopulmonary bypass (CPB) and deep hypothermic circulatory arrest (DHCA) remains a significant cause of adverse cerebral outcome. […] Cannulas were placed in the tail artery and the right external jugular vein. Animals were then cooled on CPB for 30 minutes, and DHCA was instituted at a pericranial temperature of 16-18° C. […] MRI was performed on day-1 post-operatively, neurological assessments on day 1 and 2 post-operatively, and animals then sacrificed after day 2.

[6] = system: vascular dementia (BCAS mice); experiment: Murine model of vascular dementia (BCAS); type: in vivo; settings: for Morris water maze escape latency: versus vehicle, n=10
Experimental: Vascular dementia is caused by chronic cerebral hypoperfusion and is characterized clinically by white matter lesions on MRI and a decline in executive function. […] Physiological, cellular, and functional outcomes were determined using a combination of quantitative immunochemistry, MRI, and behavioral tasks including Morris water maze and rotorod.

[7] = system: permanent MCA occlusion model; settings: cited from earlier work
[8] = during therapeutic dosing; cited from earlier work

SMILES: CNc1ccnc2cc(Cl)ccc12 [7C-4MAQ, 7-chloro-N-methylquinolin-4-amine]
LiPE (pIC50-clogP) (QR2): 4.67 | reductions in cortical stroke volumes relative to those after CQ ([1]; equivalent single acute phase dose 25 mg/kg, FIG. 3C): ~2 × | LD50 relative to the 25 mg/kg dose [2]: more than 20 times | improvement in Morris water maze performance ([3]; 1 month following injury): 62% | improvement over vehicle in rotorod latency [3]: 20% | improvement in motor function (rotorod assessment) [4]: 21% | neurological scores at post-op day 1 and 2 ([5]; 25 mg/kg 2 hours before CPB/DHCA, FIG. 8): significantly improved neurological scores | apoptotic and necrotic neurons in cortex and hippocampus [5]: fewer apoptotic and necrotic neurons | decrease in post-operative blood brain barrier permeability (gadolinium chelate, MRI) [5]: 3% | Morris water maze probe trial, time in target quadrant ([6]; p<0.05 group effect): significantly more time in the target quadrant | Morris water maze escape latency [6]: decreased escape latencies compared to vehicle controls

SMILES: Oc1ccc(CCNc2ccnc3cc(Cl)ccc23)cc1 [Example Compound A, 4-{2-[(7-chloroquinolin-4-yl)amino]ethyl}phenol]
IC50 (QR2): 2.7 µM | LiPE (pIC50-clogP) (QR2): 1.65

SMILES: CCN(CC)CCCC(C)Nc1ccnc2cc(Cl)ccc12 (stereo not shown) [chloroquine]
stroke evolution between 4 and 24 hours by DW-MRI ([1]; single i.p. 25 mg/kg 90 minutes after ischemia onset): reduction in stroke evolution | reduction in overall stroke volume ([1]; single i.p. 25 mg/kg 90 minutes after ischemia onset, post-mortem histology at 72 hours): 55% | apoptotic and necrotic neurons in cortex and hippocampus [5]: fewer apoptotic and necrotic neurons | decrease in post-operative blood brain barrier permeability (gadolinium chelate, MRI) [5]: 3% | Morris water maze escape latency [6]: performance profile similar to their N-MCQ counterparts | reduction of stroke volumes [7]: 60% | plasma concentration [8]: < 1000 nM

Results, then the compound that gave them:

LiPE (pIC50-clogP) (QR2): 4.30
SMILES: COc1cc(NCc2ccccn2)c2ncccc2c1 [Example Compound B, 6-methoxy-N-(pyridin-2-ylmethyl)quinolin-8-amine]

IC50 (QR2): 0.85 µM | LiPE (pIC50-clogP) (QR2): 3.42
SMILES: COc1cc(NC(C)c2ccco2)c2ncccc2c1 (stereo not shown) [Example Compound C, N-[1-(furan-2-yl)ethyl]-6-methoxyquinolin-8-amine]

IC50 (QR2): 0.55 µM | LiPE (pIC50-clogP) (QR2): 2.71
SMILES: Clc1ccc2c(Nc3ccccn3)ccnc2c1 [Example Compound D, 7-chloro-N-(pyridin-2-yl)quinolin-4-amine]
